According to patent publication US9550792B2, “Polycyclic substituted pyrazole kinase activity inhibitors and use thereof” (priority 2013, dated 2017):
Values after ≈ are worked out from the molar mass of the structure shown. Where two headings read alike, the source gives them in different places.

Experiments:
CDK9/cyclin K = CDK9/cyclin K (Homo sapiens, UniProt P50750); experiment: Kinase IC50, 33P labeled isotope method; format: biochemical; conditions: 20 μM ATP
FLT3 = target: T1, FLT3 (Homo sapiens, UniProt P36888); experiment: Kinase IC50, 33P labeled isotope method; format: biochemical; conditions: 20 μM ATP
T1 sequence (P36888 610-943 limits assumed): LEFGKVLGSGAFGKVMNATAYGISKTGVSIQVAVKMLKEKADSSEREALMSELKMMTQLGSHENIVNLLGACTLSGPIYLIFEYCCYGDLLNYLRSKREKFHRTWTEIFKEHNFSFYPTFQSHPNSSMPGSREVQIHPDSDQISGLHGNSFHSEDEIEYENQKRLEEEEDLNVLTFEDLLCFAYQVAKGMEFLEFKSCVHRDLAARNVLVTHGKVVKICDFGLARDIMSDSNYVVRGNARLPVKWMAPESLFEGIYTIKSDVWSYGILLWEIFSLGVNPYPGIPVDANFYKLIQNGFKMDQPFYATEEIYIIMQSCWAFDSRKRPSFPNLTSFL

GSK3b = GSK3b (Homo sapiens, UniProt P49841); experiment: Kinase IC50, 33P labeled isotope method; format: biochemical; conditions: 20 μM ATP
lung cancer cell H1299 = experiment: Anti-tumor activity in vitro, MTT method; format: cell-based; conditions: Homo sapiens, NCI-H1299, 48 h, read-out: H1299 (IC50/μM)
[1] = system: Candida albicans - ATCC 36082; experiment: Antifungal activity, modified broth microdilution; format: cell-based; conditions: Candida albicans, ATCC36082; 48 hours at 35, approximately 50% reduction of growth
Method: (§1) The test microorganisms are maintained on Sabourahd Dextrose Agar slant at 4[…]. Singlet suspension of each microorganism is prepared by growing the yeast overnight at 27[…] on a rotating drum in yeast-nitrogen base broth (YNB) with amino acids (Difco, Detroit, Mich.), (pH 7.0) and 0.05 morpholine propanesulphonic acid (MOPS). […] The activity of the test compound is determined using a modified broth microdilution technique. […] Well 12 serves as a growth control. […] Inoculated plate is incubated for 48 hours at 35 °C. […] Minimal Cytolytic Concentration (MCC) is determined by subculturing all wells from the 96-well plate onto a Sabourahd Dextrose Agar (SDA) plate, incubating for 1-2 days at 35 °C, and then checking viability.

Candida parapsilosis = experiment: Antifungal activity, modified broth microdilution; format: cell-based; conditions: Lodderomyces parapsilosis; 48 hours at 35, approximately 50% reduction of growth
Method: as §1

Candida tropicalis = experiment: Antifungal activity, modified broth microdilution; format: cell-based; conditions: Candida tropicalis; 48 hours at 35, approximately 50% reduction of growth
Method: as §1

Cryptococcus neoformans = experiment: Antifungal activity, modified broth microdilution; format: cell-based; conditions: Cryptococcus neoformans; 48 hours at 35, approximately 50% reduction of growth
Method: as §1

Phytophthora infestans = format: in vivo
CDK6/cyclin D1 = CDK6/cyclin D1 (Homo sapiens, UniProt Q00534); experiment: Kinase IC50, 33P labeled isotope method; format: biochemical
FLT4/VEGFR3 = FLT4/VEGFR3 (Homo sapiens, UniProt P35916); experiment: Kinase IC50, 33P labeled isotope method; format: biochemical
FLT4/VEGFR3, sequence (P35916 845-1173 limits assumed): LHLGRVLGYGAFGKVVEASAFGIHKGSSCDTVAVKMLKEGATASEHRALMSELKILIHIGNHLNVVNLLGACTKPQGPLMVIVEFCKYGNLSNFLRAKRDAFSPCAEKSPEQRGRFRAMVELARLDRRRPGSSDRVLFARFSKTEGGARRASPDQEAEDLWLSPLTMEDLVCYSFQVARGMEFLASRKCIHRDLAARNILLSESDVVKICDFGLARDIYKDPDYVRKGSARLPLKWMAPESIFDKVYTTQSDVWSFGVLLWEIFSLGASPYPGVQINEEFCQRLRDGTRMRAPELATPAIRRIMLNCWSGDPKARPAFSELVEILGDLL

CDK9/cyclin K, sequence (P50750 19-315 limits assumed): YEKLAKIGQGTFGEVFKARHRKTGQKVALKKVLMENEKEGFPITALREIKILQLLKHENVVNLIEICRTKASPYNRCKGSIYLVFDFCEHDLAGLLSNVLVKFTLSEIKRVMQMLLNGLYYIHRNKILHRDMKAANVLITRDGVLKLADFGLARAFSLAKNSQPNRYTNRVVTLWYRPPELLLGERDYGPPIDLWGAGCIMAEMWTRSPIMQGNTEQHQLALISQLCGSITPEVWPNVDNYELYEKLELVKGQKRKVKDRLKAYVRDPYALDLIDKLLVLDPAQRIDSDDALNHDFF
CDK9/cyclin K, sequence (O75909 whole entry partner): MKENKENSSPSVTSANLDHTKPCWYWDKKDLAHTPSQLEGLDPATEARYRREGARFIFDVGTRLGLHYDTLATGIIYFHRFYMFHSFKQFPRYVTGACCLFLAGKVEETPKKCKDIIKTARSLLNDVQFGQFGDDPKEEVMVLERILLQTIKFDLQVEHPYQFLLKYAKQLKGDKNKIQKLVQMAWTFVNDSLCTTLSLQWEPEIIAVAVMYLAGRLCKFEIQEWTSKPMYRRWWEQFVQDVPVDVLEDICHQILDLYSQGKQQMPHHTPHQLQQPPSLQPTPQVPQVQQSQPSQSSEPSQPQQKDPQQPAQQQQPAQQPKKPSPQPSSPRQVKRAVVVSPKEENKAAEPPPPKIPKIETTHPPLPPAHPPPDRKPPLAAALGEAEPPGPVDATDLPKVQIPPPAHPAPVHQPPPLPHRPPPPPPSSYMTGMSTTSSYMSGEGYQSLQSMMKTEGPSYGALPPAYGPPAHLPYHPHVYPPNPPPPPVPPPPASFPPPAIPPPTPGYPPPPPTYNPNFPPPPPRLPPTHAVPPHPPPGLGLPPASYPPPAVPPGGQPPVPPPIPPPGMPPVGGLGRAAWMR
GSK3b, sequence (P49841 56-340 limits assumed): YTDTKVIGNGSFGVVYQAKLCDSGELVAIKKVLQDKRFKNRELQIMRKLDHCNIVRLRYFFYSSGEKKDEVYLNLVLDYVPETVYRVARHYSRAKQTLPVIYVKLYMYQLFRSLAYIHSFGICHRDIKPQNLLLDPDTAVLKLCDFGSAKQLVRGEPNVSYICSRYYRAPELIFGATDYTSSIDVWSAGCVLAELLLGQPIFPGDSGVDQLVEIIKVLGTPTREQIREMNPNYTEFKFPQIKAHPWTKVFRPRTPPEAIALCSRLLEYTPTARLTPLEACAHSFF
CDK6/cyclin D1, sequence (Q00534 13-300 limits assumed): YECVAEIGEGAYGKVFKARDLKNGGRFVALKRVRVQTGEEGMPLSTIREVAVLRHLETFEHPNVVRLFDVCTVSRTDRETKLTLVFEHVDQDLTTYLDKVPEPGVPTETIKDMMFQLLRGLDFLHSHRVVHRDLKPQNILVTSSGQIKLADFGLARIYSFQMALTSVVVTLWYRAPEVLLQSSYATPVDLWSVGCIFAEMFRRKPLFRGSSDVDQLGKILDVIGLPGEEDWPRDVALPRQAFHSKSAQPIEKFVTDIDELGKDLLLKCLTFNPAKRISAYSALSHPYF
CDK6/cyclin D1, sequence (P24385 whole entry partner): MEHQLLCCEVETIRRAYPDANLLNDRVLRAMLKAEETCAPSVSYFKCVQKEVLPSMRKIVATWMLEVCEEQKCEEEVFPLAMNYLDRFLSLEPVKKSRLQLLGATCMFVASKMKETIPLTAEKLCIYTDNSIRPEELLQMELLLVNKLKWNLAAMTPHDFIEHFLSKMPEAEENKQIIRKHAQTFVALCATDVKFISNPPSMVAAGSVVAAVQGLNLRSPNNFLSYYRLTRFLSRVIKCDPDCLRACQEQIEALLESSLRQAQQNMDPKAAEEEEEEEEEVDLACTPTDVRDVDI

| SMILES | IC50 (CDK9/cyclin K) [nM] | IC50 (FLT3) [nM] | IC50 (GSK3b) [nM] | IC50 (lung cancer cell H1299) [µM] | MIC [1] [µg/mL] | MIC (Candida parapsilosis) [µg/mL] | MIC (Candida tropicalis) [µg/mL] | MIC (Cryptococcus neoformans) [µg/mL] | Severity of tomato leaf blight (Phytophthora infestans; 0.0001 (unit not given)) | Severity of tomato leaf blight (Phytophthora infestans; 0.001 (unit not given)) | Severity of tomato leaf blight (Phytophthora infestans; 0.01 (unit not given)) | Severity of tomato leaf blight (Phytophthora infestans; 0.1 (unit not given)) | melting point [°C] | IC50 (CDK6/cyclin D1) [nM] | IC50 (FLT4/VEGFR3) [nM] | IC50 (CDK6/cyclin D1; 20 μM ATP, read-out: IC50* CDK6/cyclin D1) [nM] | IC50 (FLT4/VEGFR3; 20 μM ATP, read-out: IC50* FLT4/VEGFR3) [nM] |
| --- | --- | --- | --- | --- | --- | --- | --- | --- | --- | --- | --- | --- | --- | --- | --- | --- | --- |
| CN1CCN(Cc2ccc(NC(=O)c3n[nH]cc3Nc3ncnc4occc34)cc2)CC1 [Compound I-21, 4-(4-furo[2,3-d]pyrimidinylamino)-N-(4-((4-methyl-1-piperazinyl)methyl)phenyl)-1H-3-pyrazolecarboxamide] | 45 | 1 | 1 | 7.66 | 7.82 (≈ 18.1 µM) | 9.76 (≈ 22.6 µM) | 8.29 (≈ 19.2 µM) | 13.8 (≈ 32 µM) | ++++ (>60% blight) | ++ (15-40% blight) | + (0-15% blight) | − | 255 to 257 |  |  |  |  |
| CN1CCN(Cc2ccc(NC(=O)c3n[nH]cc3Nc3ncnc4[nH]ccc34)cc2)CC1 [Compound I-11, 4-(4-(7H-pyrrolo[2,3-d]pyrimidinyl)amino)-N-(4-((4-methyl-1-piperazinyl)methyl)phenyl)-1H-3-pyrazolecarboxamide] |  | 1 | 1 |  | 7.45 (≈ 17.3 µM) | 11.2 (≈ 26 µM) | 7.72 (≈ 17.9 µM) | 15 (≈ 34.8 µM) | +++ (40-60% blight) | ++ (15-40% blight) | + (0-15% blight) | − |  | 4 | 4 |  |  |
| Cc1cc2c(Nc3c[nH]nc3C(=O)Nc3ccc(CN4CCN(C)CC4)cc3)ncnc2s1 [Compound I-3, 4-(4-(6-methylthieno[2,3-d]pyrimidinyl)amino)-N-(4-((4-methyl-1-piperazinyl)methyl)phenyl)-1H-3-pyrazolecarboxamide] | 37 |  | 1 |  |  |  |  |  |  |  |  |  | 235 to 238 |  |  | 4 | 4 |
| Cc1cc2c(Nc3c[nH]nc3C(=O)Nc3ccc(CN4CCN(C)CC4)cc3)ncnc2[nH]1 [Compound I-13, 4-(4-(6-methyl-7H-pyrrolo[2,3-d]pyrimidinyl)amino)-N-(4-((4-methyl-1-piperazinyl)methyl)phenyl)-1H-3-pyrazolecarboxamide] | 43 | 1 | 1 |  | 5.85 (≈ 13.1 µM) | 0.98 (≈ 2.2 µM) | 3.24 (≈ 7.27 µM) | 4.23 (≈ 9.49 µM) | ++ (15-40% blight) | ++ (15-40% blight) | + (0-15% blight) | − | 268 to 270 |  |  |  |  |
| Cc1cc2c(Nc3c[nH]nc3C(=O)Nc3ccc(CN4CCN(C)CC4)cc3)nccc2s1 [Compound I-27, 4-(4-(2-methylthieno[3,2-c]pyridyl)amino)-N-(4-((4-methyl-1-piperazinyl)methyl)phenyl)-1H-3-pyrazolecarboxamide] | 43 | 1 | 1 |  | 5.48 (≈ 11.9 µM) | 1.02 (≈ 2.21 µM) | 3.57 (≈ 7.73 µM) | 4.06 (≈ 8.8 µM) | ++++ (>60% blight) | ++ (15-40% blight) | + (0-15% blight) | − | 267 to 269 |  |  |  |  |
